Results: ChEMBL document CHEMBL1201862, “PubChem BioAssay data set” (2004)
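Following 48 hours of exposure in 96-well plates, responses at five concentrations were used to interpolate endpoints linearly. At the GI50, growth is halved.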 Activity calls are given as the source filed them. No stated cut-off is given here; in the data, active = GI50 up to about 1.1 µM and inactive = higher.

Legend:
Experiment in all cases: growth of human tumour cells (NCI), 48 h
786-0 = test system: 786-0
A549 = test system: A549
DMS-114 = test system: DMS-114
HOP-62 = test system: HOP-62
IGROV-1 = test system: IGROV-1
NCI-H522 = test system: NCI-H522
RPMI-8226 = test system: RPMI-8226
SF-268 = test system: SF-268
SF-539 = test system: SF-539
SK-MEL-28 = test system: SK-MEL-28
SK-OV-3 = test system: SK-OV-3
SN12C = test system: SN12C
SW-620 = test system: SW-620
U-251 = test system: U-251
UO-31 = test system: UO-31
LOX IMVI = test system: LOX IMVI
RXF 393 = test system: RXF 393

Measured: GI50

CCCN(CCC)CCc1cc(C(C)=O)n(S(=O)(=O)c2ccc(C)cc2)c1
inactive: 786-0 > 100 µM | A549 > 100 µM | DMS-114 > 100 µM | HOP-62 > 100 µM | IGROV-1 > 100 µM | NCI-H522 > 100 µM | RPMI-8226 > 100 µM | SF-268 > 100 µM | SF-539 > 100 µM | SK-MEL-28 > 100 µM | SK-OV-3 > 100 µM | SN12C > 100 µM | SW-620 > 100 µM | U-251 > 100 µM | UO-31 83.2 µM

O=C(Nc1ccc(Cl)cc1Cl)C(=O)C(C(=O)c1ccncc1)C1OC(=O)c2ccccc21 (stereo unspecified)
inactive: 786-0 > 100 µM | A549 > 100 µM | DMS-114 > 100 µM | HOP-62 > 100 µM | IGROV-1 > 100 µM | LOX IMVI > 100 µM | NCI-H522 > 100 µM | RPMI-8226 > 100 µM | RXF 393 > 100 µM | SF-268 > 100 µM | SF-539 > 100 µM | SK-MEL-28 > 100 µM | SK-OV-3 > 100 µM | SN12C > 100 µM | SW-620 > 100 µM | U-251 > 100 µM | UO-31 > 100 µM

COC(=O)/C(Cl)=C1/CC1COCc1ccccc1 (stereo unspecified)
inactive: 786-0 19.7 µM | A549 54.7 µM | DMS-114 28.8 µM | HOP-62 > 100 µM | IGROV-1 44.9 µM | LOX IMVI > 10 µM | NCI-H522 20.3 µM | RPMI-8226 19.5 µM | RXF 393 18.9 µM | SF-268 43.8 µM | SF-539 23.8 µM | SK-MEL-28 21.8 µM | SK-OV-3 > 100 µM | SN12C 36.6 µM | SW-620 21.1 µM | UO-31 28.8 µM

CCC12CCCC(=O)N1C(CO)C(c1ccccc1)O2 (stereo unspecified)
inactive: 786-0 > 100 µM | A549 > 100 µM | DMS-114 38 µM | HOP-62 > 100 µM | IGROV-1 > 100 µM | LOX IMVI > 100 µM | RPMI-8226 > 100 µM | RXF 393 > 100 µM | SF-268 > 100 µM | SF-539 > 100 µM | SK-MEL-28 > 100 µM | SN12C > 100 µM | SW-620 > 100 µM | U-251 > 100 µM

N#CC(NNC(=O)Cc1ccccc1)c1cccc(O)c1 (stereo unspecified)
inactive: 786-0 > 100 µM | A549 > 100 µM | DMS-114 > 100 µM | HOP-62 > 100 µM | IGROV-1 > 100 µM | LOX IMVI > 100 µM | NCI-H522 > 100 µM | RPMI-8226 > 100 µM | RXF 393 > 100 µM | SF-268 > 100 µM | SF-539 > 100 µM | SK-MEL-28 > 100 µM | SK-OV-3 > 100 µM | SN12C > 100 µM | SW-620 > 100 µM | U-251 > 100 µM | UO-31 > 100 µM

CC(=O)Nc1ccc(C2CC(c3ccc([N+](=O)[O-])cc3)=Nc3ccccc3[S+]2[O-])cc1 (stereo unspecified)
inactive: 786-0 9.64 µM | A549 38.4 µM | DMS-114 21.2 µM | HOP-62 22.1 µM | IGROV-1 12.7 µM | LOX IMVI 14.7 µM | NCI-H522 17.3 µM | RPMI-8226 4.36 µM | RXF 393 17.4 µM | SF-268 36.6 µM | SF-539 24.6 µM | SK-MEL-28 19.6 µM | SK-OV-3 27.4 µM | SN12C 24.5 µM | SW-620 20 µM | UO-31 16.7 µM

CC1=NN(c2ccccc2)C(=O)C1=C1SCCCS1
inactive: 786-0 35.5 µM | A549 25.4 µM | DMS-114 20.8 µM | HOP-62 42.1 µM | IGROV-1 30.2 µM | LOX IMVI 23.6 µM | NCI-H522 18.1 µM | RPMI-8226 19.7 µM | RXF 393 28.5 µM | SF-268 44 µM | SK-MEL-28 48.6 µM | SK-OV-3 46.3 µM | SN12C 28.2 µM | SW-620 13.2 µM | U-251 18.1 µM | UO-31 34.2 µM

COc1ccccc1/N=C(\N)N/N=C/c1c[nH]c2ccccc12
inactive: 786-0 13.3 µM | A549 13.2 µM | DMS-114 3.39 µM | HOP-62 16.3 µM | IGROV-1 11 µM | LOX IMVI 10.4 µM | NCI-H522 3.65 µM | RPMI-8226 3.13 µM | RXF 393 14.1 µM | SF-268 14.2 µM | SF-539 13.5 µM | SK-MEL-28 3.57 µM | SK-OV-3 15.6 µM | SN12C 10.4 µM | SW-620 2.72 µM | U-251 11.6 µM | UO-31 13.3 µM

CCOc1ccc2c(c1)[n+]([O-])c(-c1ccccc1)c(N)[n+]2[O-]
inactive: 786-0 > 100 µM | A549 > 100 µM | DMS-114 34.9 µM | HOP-62 71.9 µM | IGROV-1 82.6 µM | LOX IMVI > 100 µM | NCI-H522 16.8 µM | RPMI-8226 > 100 µM | SF-268 36.6 µM | SF-539 51.3 µM | SK-MEL-28 33.1 µM | SK-OV-3 > 100 µM | SN12C > 100 µM | SW-620 > 100 µM | U-251 47.6 µM | UO-31 96.4 µM

C[C@]12CCC3[C@@H](CCC45OC4C(=O)CC[C@]35C)C1Cc1cnn(-c3ccc(F)cc3)c1N2 (stereo partly specified)
inactive: 786-0 18.6 µM | A549 65.5 µM | DMS-114 19.4 µM | HOP-62 29.6 µM | LOX IMVI 16.7 µM | NCI-H522 15 µM | RPMI-8226 19.5 µM | RXF 393 27.9 µM | SF-268 23.6 µM | SK-MEL-28 26.6 µM | SK-OV-3 58.1 µM | SN12C 23.3 µM | SW-620 31.8 µM | U-251 28.4 µM | UO-31 87.9 µM

Nc1ccc(C(=O)NN2C(=O)C(Cl)C2c2cccc([N+](=O)[O-])c2)cc1 (stereo unspecified)
inactive: 786-0 18.7 µM | A549 46.3 µM | DMS-114 18.7 µM | HOP-62 24.6 µM | IGROV-1 14.3 µM | LOX IMVI 10.2 µM | NCI-H522 12 µM | RPMI-8226 23.2 µM | SF-268 17 µM | SF-539 20.7 µM | SK-MEL-28 21 µM | SK-OV-3 18.7 µM | SN12C 19.7 µM | SW-620 21.7 µM | U-251 13.9 µM | UO-31 17.4 µM

Clc1ccc(C2=NN(c3ccccc3)C3c4cc(Br)ccc4OCC23)cc1 (stereo unspecified)
inactive: 786-0 > 100 µM | A549 > 100 µM | DMS-114 86.1 µM | HOP-62 > 100 µM | IGROV-1 > 100 µM | LOX IMVI 64.3 µM | NCI-H522 > 100 µM | RPMI-8226 11.6 µM | RXF 393 61.1 µM | SF-268 53.6 µM | SF-539 > 100 µM | SK-MEL-28 > 100 µM | SK-OV-3 > 100 µM | SW-620 > 100 µM | U-251 67.3 µM | UO-31 > 100 µM
